Reference: PubChem BioAssay AID330 (DTP/NCI, 2004)
Several values for one entry are separate records, joined by “and”; a condition that tells them apart may be missing. Identical values can stand only once. Inconclusive results and toxic doses are left out.

Tested on: P388 leukemia ip, CD2F1 mice, survival T/C
Assay: NCI In Vivo Anticancer Drug Screen. Data for tumor model P388 Leukemia (intraperitoneal) in CD2F1 (CDF1) mice
Settings: endpoint: median survival time, higher = longer survival
Procedure, shortened: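 Mice carrying the transplanted tumor received test compound or vehicle. Survival was recorded in each group, and the value is the treated-group measurement divided by that of the vehicle-treated control group.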

[1] = dose: 50.0 mg/kg/injection, schedule: Q01DX005 (ip), vehicle: saline with Tween-80
[2] = dose: 100.0 mg/kg/injection, schedule: Q01DX005 (ip), vehicle: saline with Tween-80
[3] = dose: 200.0 mg/kg/injection, schedule: Q01DX005 (ip), vehicle: saline with Tween-80
[4] = dose: 12.5 mg/kg/injection, schedule: Q01DX009 (ip), vehicle: saline
[5] = dose: 25.0 mg/kg/injection, schedule: Q01DX009 (ip), vehicle: saline
[6] = dose: 50.0 mg/kg/injection, schedule: Q01DX009 (ip), vehicle: saline
[7] = dose: 6.25 mg/kg/injection, schedule: Q01DX009 (ip), vehicle: saline with Tween-80
[8] = dose: 12.5 mg/kg/injection, schedule: Q01DX009 (ip), vehicle: saline with Tween-80
[9] = dose: 25.0 mg/kg/injection, schedule: Q01DX009 (ip), vehicle: saline with Tween-80
[10] = dose: 50.0 mg/kg/injection, schedule: Q01DX005 (ip), vehicle: Klucel (hydroxypropylcellulose) (HPC)
[11] = dose: 100.0 mg/kg/injection, schedule: Q01DX005 (ip), vehicle: Klucel (hydroxypropylcellulose) (HPC)
[12] = dose: 200.0 mg/kg/injection, schedule: Q01DX005 (ip), vehicle: Klucel (hydroxypropylcellulose) (HPC)
[13] = dose: 100.0 mg/kg/injection, schedule: Q04DX003 (ip), vehicle: saline with Tween-80
[14] = dose: 200.0 mg/kg/injection, schedule: Q04DX003 (ip), vehicle: saline with Tween-80
[15] = dose: 100.0 mg/kg/injection, schedule: Q01DX009 (ip), vehicle: saline with Tween-80
[16] = dose: 100.0 mg/kg/injection, schedule: Q01DX009 (ip), vehicle: saline
[17] = dose: 200.0 mg/kg/injection, schedule: Q01DX009 (ip), vehicle: saline

COc1cc2c(cc1C(C)c1ccc(Br)cc1)OCO2 (stereo not given)
T/C [1]: 96 % of control | T/C [2]: 103 % of control | T/C [3]: 100 % of control

CCC(=O)C(=O)CC1CC(c2ccco2)=Nc2ccccc2S1 (stereo not given)
T/C [1]: 111 % of control | T/C [2]: 113 % of control | T/C [3]: 102 % of control

CC1C(=O)OC2C1CCC1(C)CCC(=O)C(C)C21 (stereo not given)
T/C (dose: 100.0 mg/kg/injection, schedule: Q04DX002 (ip), vehicle: saline with Tween-80): 101 % of control

COC(C)(C)O/N=C(\C[P+](c1ccccc1)(c1ccccc1)c1ccccc1)c1ccc(Cl)cc1
T/C (dose: 6.25 mg/kg/injection, schedule: Q01DX009 (ip), vehicle: Klucel (hydroxypropylcellulose) (HPC)): 109 % of control | T/C (dose: 12.5 mg/kg/injection, schedule: Q01DX009 (ip), vehicle: Klucel (hydroxypropylcellulose) (HPC)): 106 % of control | T/C (dose: 25.0 mg/kg/injection, schedule: Q01DX009 (ip), vehicle: Klucel (hydroxypropylcellulose) (HPC)): 99 % of control

Clc1ccc2ccc3ccccc3c2n1
T/C [4]: 101 % of control | T/C [5]: 102 % of control | T/C [6]: 101 % of control and 94 % of control

S=C([S][Sn]([c]1ccccc1)([c]1ccccc1)[c]1ccccc1)N1CCCCC1
T/C (dose: 3.12 mg/kg/injection, schedule: Q01DX009 (ip), vehicle: saline with Tween-80): 99 % of control | T/C [7]: 104 % of control | T/C [8]: 107 % of control | T/C [9]: 112 % of control

Cc1cccc(C)c1NC(=O)CCC(=O)O
T/C [10]: 104 % of control | T/C [11]: 102 % of control | T/C [12]: 103 % of control

CSc1ccccc1[As](c1ccccc1)c1ccccc1
T/C (dose: 50.0 mg/kg/injection, schedule: Q01DX009 (ip), vehicle: Klucel (hydroxypropylcellulose) (HPC)): 95 % of control | T/C (dose: 100.0 mg/kg/injection, schedule: Q01DX009 (ip), vehicle: Klucel (hydroxypropylcellulose) (HPC)): 91 % of control | T/C (dose: 200.0 mg/kg/injection, schedule: Q01DX009 (ip), vehicle: Klucel (hydroxypropylcellulose) (HPC)): 97 % of control

Cc1cc2nc(CN(CCN(Cc3nc4cc(C)c(C)cc4[nH]3)Cc3nc4cc(C)c(C)cc4[nH]3)Cc3nc4cc(C)c(C)cc4[nH]3)[nH]c2cc1C
T/C (dose: 12.5 mg/kg/injection, schedule: Q01DX001 (ip), vehicle: saline with Tween-80): 106 % of control | T/C (dose: 25.0 mg/kg/injection, schedule: Q01DX001 (ip), vehicle: saline with Tween-80): 116 % of control | T/C (dose: 50.0 mg/kg/injection, schedule: Q01DX001 (ip), vehicle: saline with Tween-80): 116 % of control

CC(C)NC(=O)OCc1c(COC(=O)NC(C)C)c(S(C)(=O)=O)n2c1CCC2
T/C (dose: 25.0 mg/kg/injection, schedule: Q01DX005 (ip), vehicle: saline with Tween-80): 89 % of control | T/C [1]: 86 % of control | T/C [2]: 88 % of control | T/C [3]: 91 % of control

O=C(c1ccccc1)c1cccc[n+]1Cc1ccccc1
T/C [4]: 103 % of control | T/C [5]: 96 % of control | T/C [6]: 98 % of control and 100 % of control

C[n+]1c(/C=C\c2ccc(Cl)cc2)ccc2ccccc21
T/C (dose: 1.56 mg/kg/injection, schedule: Q01DX009 (ip), vehicle: saline with Tween-80): 100 % of control | T/C (dose: 3.13 mg/kg/injection, schedule: Q01DX009 (ip), vehicle: saline with Tween-80): 113 % of control

c1ccc2cc(OCC(COc3ccc4ccccc4c3)(COc3ccc4ccccc4c3)COc3ccc4ccccc4c3)ccc2c1
T/C (dose: 7.5 mg/kg/injection, schedule: Q01DX009 (ip), vehicle: saline with Tween-80): 89 % of control

Cn1c(Cl)c(C=O)c(=O)n(C)c1=O
T/C [13]: 104 % of control | T/C [14]: 96 % of control

c1ccc(Sc2c(-c3ccccc3)c(-c3ccccc3)c3n2CCC3)cc1
T/C (dose: 60.0 mg/kg/injection, schedule: Q01DX005 (ip), vehicle: Klucel (hydroxypropylcellulose) (HPC)): 86 % of control | T/C (dose: 120.0 mg/kg/injection, schedule: Q01DX005 (ip), vehicle: Klucel (hydroxypropylcellulose) (HPC)): 86 % of control

c1nc(SC2CCCC2)c2[nH]cnc2n1
T/C [13]: 118 % of control | T/C [14]: 104 % of control | T/C (dose: 400.0 mg/kg/injection, schedule: Q04DX003 (ip), vehicle: saline with Tween-80): 118 % of control

COC(=O)C(N)CN (stereo not given)
T/C (dose: 43.75 mg/kg/injection, schedule: Q01DX009 (ip), vehicle: saline with Tween-80): 97 % of control | T/C (dose: 87.5 mg/kg/injection, schedule: Q01DX009 (ip), vehicle: saline with Tween-80): 97 % of control | T/C (dose: 175.5 mg/kg/injection, schedule: Q01DX009 (ip), vehicle: saline with Tween-80): 97 % of control

CC(/C=N\Nc1ccc(Cl)c(Cl)c1)=N/NC(=O)C[n+]1ccccc1
T/C (dose: 25.0 mg/kg/injection, schedule: Q04DX002 (ip), vehicle: saline): 108 % of control | T/C (dose: 50.0 mg/kg/injection, schedule: Q04DX002 (ip), vehicle: saline): 104 % of control | T/C (dose: 100.0 mg/kg/injection, schedule: Q04DX002 (ip), vehicle: saline): 102 % of control and 92 % of control

C=CC(=NC(C)(C)C)Nc1ccccc1C
T/C (dose: 0.79 mg/kg/injection, schedule: Q01DX009 (ip), vehicle: saline): 99 % of control and 103 % of control and 90 % of control | T/C (dose: 1.56 mg/kg/injection, schedule: Q01DX009 (ip), vehicle: saline): 101 % of control and 89 % of control | T/C [4]: 99 % of control

C[N+]1(C)CCN(Cc2ccc3c(c2)CCc2ccccc2N3)CC1
T/C (dose: 3.75 mg/kg/injection, schedule: Q01DX005 (ip), vehicle: saline): 104 % of control | T/C (dose: 7.5 mg/kg/injection, schedule: Q01DX005 (ip), vehicle: saline): 96 % of control

O=C1C(=O)N(c2ccccc2)C(=O)N1c1ccccc1
T/C [7]: 96 % of control | T/C [8]: 105 % of control | T/C [9]: 104 % of control and 89 % of control | T/C [15]: 101 % of control and 86 % of control

C1=NCCCN2CCCCC12 (stereo not given)
T/C (dose: 20.0 mg/kg/injection, schedule: Q01DX009 (ip), vehicle: saline): 98 % of control | T/C (dose: 40.0 mg/kg/injection, schedule: Q01DX009 (ip), vehicle: saline): 93 % of control

O=[Se](O)O
T/C (dose: 0.78 mg/kg/injection, schedule: Q01DX005 (ip), vehicle: water): 106 % of control and 110 % of control | T/C (dose: 1.56 mg/kg/injection, schedule: Q01DX005 (ip), vehicle: water): 114 % of control and 119 % of control | T/C (dose: 3.12 mg/kg/injection, schedule: Q01DX005 (ip), vehicle: water): 114 % of control | T/C (dose: 6.25 mg/kg/injection, schedule: Q01DX005 (ip), vehicle: water): 117 % of control

N#CNC(=S)SCC(N)=O
T/C [10]: 100 % of control | T/C [11]: 100 % of control | T/C [12]: 102 % of control

CC1(C)S[C@@H]2[C@H](NC(=O)C3(N)CCCCC3)C(=O)N2[C@H]1C(=O)O
T/C [10]: 103 % of control | T/C [11]: 103 % of control | T/C [12]: 102 % of control

CC(C)=CCC(/C=N/N=C(N)N)C(C)C (stereo not given)
T/C (dose: 6.25 mg/kg/injection, schedule: Q01DX005 (ip), vehicle: suspension in saline): 96 % of control | T/C (dose: 12.5 mg/kg/injection, schedule: Q01DX005 (ip), vehicle: suspension in saline): 97 % of control | T/C (dose: 25.0 mg/kg/injection, schedule: Q01DX005 (ip), vehicle: suspension in saline): 96 % of control

CCNC1(N(C)C)N=C(N(C)C)N=C(N(C)C)O1 (stereo not given)
T/C (dose: 50.0 mg/kg/injection, schedule: Q01DX005 (ip), vehicle: saline): 96 % of control | T/C (dose: 100.0 mg/kg/injection, schedule: Q01DX005 (ip), vehicle: saline): 96 % of control

CCCCCCCCCCCCCCCCCC1=NC(C)CC(C)(C)O1 (stereo not given)
T/C [16]: 95 % of control | T/C [17]: 104 % of control

CN1C(=O)CC(=O)N(c2ccccc2)c2cc(Cl)ccc21
T/C [10]: 103 % of control | T/C [11]: 97 % of control

O=S(=O)(c1ccc(Cl)cc1)S(=O)(=O)c1ccc(Cl)cc1
T/C [6]: 92 % of control | T/C [16]: 97 % of control | T/C [17]: 101 % of control

c1csc(NC(Nc2nccs2)C23CC4CC(CC(C4)C2)C3)n1
T/C (dose: 50.0 mg/kg/injection, schedule: Q01DX009 (ip), vehicle: saline with Tween-80): 96 % of control | T/C [15]: 101 % of control | T/C (dose: 200.0 mg/kg/injection, schedule: Q01DX009 (ip), vehicle: saline with Tween-80): 100 % of control

COc1cc(CCNC(=O)CCN2C(=O)CCC2=O)cc(OC)c1OC
T/C [6]: 104 % of control | T/C [16]: 100 % of control | T/C [17]: 103 % of control

N#CC(CCCC(C#N)c1ccccc1)c1ccccc1 (stereo not given)
T/C (dose: 50.0 mg/kg/injection, schedule: Q01DX001 (ip), vehicle: Klucel (hydroxypropylcellulose) (HPC)): 106 % of control | T/C (dose: 100.0 mg/kg/injection, schedule: Q01DX001 (ip), vehicle: Klucel (hydroxypropylcellulose) (HPC)): 108 % of control
